Data published in patent publication US7977387B2, “Aminobenzophenone compounds” (Leo Pharma A/S, priority 2003, dated 2011).

Key:
[1] = system: IL-1β; assay: Inhibition of IL-1β secretion in LPS stimulated peripheral blood mononuclear cells; format: cell-based; details: PBMC; LPS stimulated human peripheral blood mononuclear cells, 18 hours, ELISA; read-out: The median inhibition concentration (IC50, nM) of IL-1β
Outline: (§1)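 Human PBMCs (5×10^5 cells/ml, RPMI 1640 + 2% FCS) pre-treated with compound 30 min, then stimulated with LPS ([…]) for 18 h. Secreted IL-1β and TNF-α quantified by ELISA; IC50 values calculated.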

[2] = system: LPS induced TNF-α response; assay: In vivo screening model of LPS induced TNF-α response in mice; details: Mus musculus, mice (C3H/HeN), dosed 1 hour prior to LPS, plasma TNF-α 80-90 minutes after LPS, vs LPS treated control group, read-out: In vivo inhibition of LPS induced TNF-α production (in %)
Method: In Vivo Screening Model of LPS Induced TNF-α Response in Mice
To study the effect of compounds of the present invention in vivo, an in vivo screening model of LPS induced TNF-α response in mice was set up as follows: Groups of 6 mice (C3H/HeN, female, about 8 weeks (20 g), Bomholtgaard) were dosed with test compounds in suspension vehicle 1 hour prior to LPS administration (LPS from E. coli 055:B5, L-4005, Sigma). At time 0, the mice were dosed ip with 1.0 mg LPS/kg. After anesthetization with Hypnorm/Dormicum, the mice were bled from the periorbital venous plexus 80-90 minutes after LPS administration. The blood samples were sampled in EDTA stabilised tubes and centrifuged at 4000 rpm for 10 minutes at 4° C. The plasma level of TNF-α was analysed by ELISA. Compound 156 of WO 98/32730 was used as reference compound. The plasma level of TNF-α was determined using a sandwich ELISA. Microtiter plates were coated with a monoclonal antibody against mouse TNF-α, washed and blocked with a casein buffer. Samples of mouse TNF-α recombinant standards were added to the wells of the microtiter plates and incubated. All standards were tested in triplicate, all plasma samples in single. After sample and standard incubation, the plates were washed and incubated with biotinylated polyclonal secondary antibody against mouse TNF-α and washed. Enzyme conjugate was added to all wells and incubated. Substrate was added and the enzyme/substrate reaction stopped after 15 minutes at room temperature with 1M H2SO4. The colour development (OD) was measured at 450 nm on an ELISA reader and the background OD at 620 nm was subtracted. […] The results of the tested compounds are indicated as a percentage inhibition compared to an LPS treated control group. Compounds were tested at 10 mg/kg. The Mann-Whitney test was used to compare drug treated groups to the LPS treated control group (p<0.05).

[3] = target: T1, p38α MAP kinase (Homo sapiens, UniProt Q16539); assay: p38α MAP kinase assay (immunoprecipitated FLAG-p38α, GST-ATF-2 substrate); format: biochemical; details: FLAG-p38α from COS-1 cells, 50 μM ATP; read-out: p38 MAP kinase IC50
T1 construct: made in house; host or cells: COS-1 cells (transient co-transfection; anti-FLAG M2 immunoprecipitation)
T1 sequence (Q16539 whole entry): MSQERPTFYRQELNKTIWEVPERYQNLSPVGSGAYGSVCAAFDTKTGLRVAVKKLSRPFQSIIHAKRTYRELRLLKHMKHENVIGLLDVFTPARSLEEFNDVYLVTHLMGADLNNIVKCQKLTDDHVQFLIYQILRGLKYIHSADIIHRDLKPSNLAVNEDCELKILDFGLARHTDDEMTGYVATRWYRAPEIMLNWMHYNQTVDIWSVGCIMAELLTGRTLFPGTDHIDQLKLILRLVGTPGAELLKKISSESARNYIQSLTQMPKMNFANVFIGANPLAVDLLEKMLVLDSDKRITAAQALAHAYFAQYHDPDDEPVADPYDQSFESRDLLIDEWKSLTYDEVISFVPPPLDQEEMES
Method: COS-1 cells (derived from African green monkey kidney fibroblast-like cell containing wild-type T antigen under control of the SV40 promotor) were obtained from ATCC (ATCC no. CRL-1650) and grown in growth medium (DMEM without phenoired, 10% FCS, 2 mM L-glutamine, 100 U penicillin and 100 μg streptomycin/ml) at 37° C. with 5% CO2. The cells were passaged twice a week by trypsination (0.25% trypsin, 1 mM EDTA in PBS) and were split 1:10. The medium was changed every second or third day. The cell line was regularly tested with the Mycoplasma PCR Primer Set (Stratagene) and found to be free of Mycoplasma. Tissue culture media, FCS, L-glutamine and penicillin and streptomycin are from Bribco BRL, Gaithersburg, Md., USA.
Transient Expression of COS-1 Cells
On day one COS-1 cells were seeded in 143 cm^2 petri dish with a density of 2×10^4 celler/cm^2 in growth medium. At day 2 the cells were co-transfected with 5 μg (total) of experimental plasmid DNA, expressing the FLAG-p38α and FLAG-MKK6(EE). The plasmids were introduced into the COS-1 cells in serum-free medium using DOTAP™ (Boehringer-Mannheim, Mannheim, Germany). Plasmid DNA was prepared and purified using the QIAGEN EndoToxin-free Maxiprep-500 kit (Hilden, Germany). Briefly, DNA and DOTAP™ were mixed for exactly 15 min. at 37° C. In the CO2 incubator. […]

[4] = system: TNF-α; assay: Inhibition of TNF-α secretion in LPS stimulated peripheral blood mononuclear cells; format: cell-based; details: PBMC; LPS stimulated human peripheral blood mononuclear cells, 18 hours, ELISA; read-out: The median inhibition concentration (IC50, nM) of TNF-α
Outline: as §1

SMILES: Cc1ccc(C(=O)NCCO)cc1C(=O)c1ccc(Nc2ccccc2N)cc1Cl [Compound 112, 3-[4-(2-Aminophenylamino)-2-chlorobenzoyl]-N-(2-hydroxyethyl)-4-methylbenzamide]
- IC50 [1]: 4 nM
- inhibition at 10 mg/kg [2]: 96%
- IC50 [3]: 2 nM
- IC50 [4]: 0.6 nM
